Species: Rattus norvegicus
Experiment: Inhibition of rat recombinant geranylgeranyltransferase type I expressed in Escherichia coli assessed as residual enzyme activity for geranylgeranylation of K-Ras4B at 50 uM incubated for 30 mins in presence of [3H]GGPP by scintillation counting assay relative to control

SMILES	Activity
CCCS[C@@H]1C[C@@H](c2ccc(Cl)cc2)N(S(=O)(=O)c2ccccc2C)C[C@H]1C(=O)O	53.3%
COC(=O)c1ccccc1S(=O)(=O)N1[C@@H](c2ccc(F)cc2)C(C(=O)O)=CC[C@H]1c1ccc(C)cc1	76.9%
COc1ccc([C@@H]2CC=C(C(=O)O)[C@H](c3cccc(F)c3)N2S(=O)(=O)c2ccc(Cl)cc2)cc1	69.3%
C=CCS[C@@H]1C[C@@H](c2ccc(C)cc2)N(S(=O)(=O)c2ccc(C)cc2)C[C@H]1C(=O)O	94.1%
COc1ccc([C@@H]2C[C@@H](SCCc3ccccc3)[C@H](C(=O)O)CN2S(=O)(=O)c2ccc(C)cc2)cc1OC	44.1%
COc1ccc([C@@H]2CC=C(C(=O)O)[C@H](c3ccc(Cl)cc3)N2S(=O)(=O)c2ccccc2C)cc1	80%
CC(=O)C1=CC[C@@H](c2ccccc2)N(S(=O)(=O)c2ccc(C)cc2)C1	98.8%
Cc1ccc([C@@H]2CC=C(C(=O)O)[C@H](c3cccc(F)c3)N2S(=O)(=O)c2ccc(C)cc2)cc1	77.3%
COc1cccc([C@@H]2C[C@@H](SCc3ccc(C(C)(C)C)cc3)[C@H](C(=O)O)CN2S(=O)(=O)c2ccc(C)cc2)c1	39%
C=CCS[C@@H]1C[C@@H](c2ccc(C)cc2)N(S(=O)(=O)c2ccc(Cl)cc2)C[C@H]1C(=O)O	74.3%
Cc1ccc([C@@H]2C[C@@H](SC3CCCC3)[C@H](C(=O)O)CN2S(C)(=O)=O)cc1	110%
Cc1ccc(S(=O)(=O)N2C[C@@H](C(=O)O)[C@H](SCC(C)C)C[C@H]2c2ccccc2F)cc1	56.8%
COc1ccc([C@@H]2C[C@@H](SCC(C)C)[C@H](C(=O)O)CN2S(=O)(=O)c2ccccc2C)cc1	79.7%
CCCCCS[C@@H]1C[C@@H](c2ccc(OC)cc2)N(S(=O)(=O)c2ccc(C)cc2)C[C@H]1C(=O)O	86.7%
Cc1ccc(S(=O)(=O)N2[C@@H](c3ccc(Cl)cc3)C(C(=O)O)=CC[C@H]2c2ccc(F)cc2)cc1	64.8%
Cc1ccc(S(=O)(=O)N2[C@@H](c3ccc(Br)cc3)C(C(=O)O)=CC[C@H]2c2cccc(C)c2)cc1	73.5%
COc1ccc([C@@H]2C[C@@H](SCc3ccc(C(C)(C)C)cc3)[C@H](C(=O)O)CN2S(=O)(=O)c2ccc(C)cc2)cc1	44.1%
Cc1ccc(S(=O)(=O)N2[C@@H](c3cccc(Cl)c3)C(C(=O)O)=CC[C@H]2c2cccc(C)c2)cc1	57.6%
Cc1ccc([C@@H]2CC=C(C(=O)O)[C@H](c3cccc(F)c3)N2S(C)(=O)=O)cc1	75%

SMILES	Activity
Cc1ccc([C@@H]2C[C@@H](SCC(C)C)[C@H](C(=O)O)CN2S(=O)(=O)c2ccccc2)cc1	51%
COc1ccc([C@@H]2CC=C(C(=O)O)[C@H](c3ccc(Br)cc3)N2S(=O)(=O)c2ccccc2C)cc1	63.7%
Cc1ccc(S(=O)(=O)N2[C@@H](c3cccc(C)c3)C(C(=O)O)=CC[C@H]2c2ccccc2)cc1	64.9%
COc1ccc([C@@H]2CC=C(C(=O)O)[C@H](c3ccc(F)cc3)N2S(=O)(=O)c2ccc(C)cc2)cc1OC	69.8%
CCOc1ccc([C@@H]2C[C@@H](SC3CCCC3)[C@H](C(=O)O)CN2S(=O)(=O)c2ccc(C)cc2)cc1	84.6%
Cc1ccc([C@H]2C(C(=O)O)=CC[C@@H](c3cccs3)N2S(=O)(=O)c2ccc(C)cc2)cc1	73.4%
CC(=O)C1=CC[C@@H](c2ccccc2F)N(S(=O)(=O)c2ccc(C)cc2)C1	80.8%
COc1ccc([C@@H]2CC=C(C(=O)O)[C@H](c3cccc(F)c3)N2S(=O)(=O)c2ccc(C)cc2)cc1OC	88.9%
Cc1ccc(S(=O)(=O)N2C[C@@H](C(=O)O)[C@H](SCc3ccccc3)C[C@H]2c2ccc3c(c2)OCO3)cc1	63.1%
Cc1ccc([C@@H]2C[C@@H](SCC(C)C)[C@H](C(=O)O)CN2S(C)(=O)=O)cc1	73.1%
CCCCCCS[C@@H]1C[C@@H](c2ccc(Cl)cc2)N(S(=O)(=O)c2ccccc2C)C[C@H]1C(=O)O	66.3%
CCOc1ccc([C@@H]2C[C@@H](Sc3ccccc3)[C@H](C(=O)O)CN2S(=O)(=O)c2ccc(C)cc2)cc1	61.1%
Cc1ccc(S(=O)(=O)N2C[C@@H](C(=O)O)[C@H](SC3CCCC3)C[C@H]2c2cccc(Br)c2)cc1	72.1%
Cc1ccc(S(=O)(=O)N2C[C@@H](C(=O)O)[C@H](SC3CCCC3)C[C@H]2c2ccccc2F)cc1	93.4%
CCCS[C@@H]1C[C@@H](c2ccccc2F)N(S(=O)(=O)c2ccc(C)cc2)C[C@H]1C(=O)O	91.1%
CCCCS[C@@H]1C[C@@H](c2ccc(OC)cc2)N(S(=O)(=O)c2ccccc2)C[C@H]1C(=O)O	83.1%
CCCCS[C@@H]1C[C@@H](c2ccc(Cl)cc2)N(S(=O)(=O)c2ccccc2C)C[C@H]1C(=O)O	87.5%
Cc1ccc(S(=O)(=O)N2C[C@@H](C(=O)O)[C@H](SCCC(C)C)C[C@H]2c2ccccc2)cc1	90%
C=CCS[C@@H]1C[C@@H](c2ccc(OC)cc2)N(S(=O)(=O)c2ccccc2)C[C@H]1C(=O)O	106%

SMILES	Activity
Cc1ccc(S(=O)(=O)N2[C@@H](c3ccc(Br)cc3)C(C(=O)O)=CC[C@H]2c2cccc(Cl)c2)cc1	69.2%
CCCCS[C@@H]1C[C@@H](c2cc(OC)c(OC)c(OC)c2)N(S(=O)(=O)c2ccc(C)cc2)C[C@H]1C(=O)O	73.5%
COc1ccc([C@@H]2C[C@@H](Sc3ccc(C)cc3)[C@H](C(=O)O)CN2S(=O)(=O)c2ccccc2)cc1	84.8%
COC(=O)c1ccccc1S(=O)(=O)N1[C@@H](c2cccc(C)c2)C(C(=O)O)=CC[C@H]1c1ccc(C)cc1	54.2%
Cc1ccc(S(=O)(=O)N2[C@@H](c3ccc(C(C)(C)C)cc3)C(C(=O)O)=CC[C@H]2c2cccc(C)c2)cc1	56.1%
Cc1ccc(S(=O)(=O)N2[C@@H](c3ccc(F)cc3)C(C(=O)O)=CC[C@H]2c2ccc3c(c2)OCO3)cc1	68.2%
Cc1ccc([C@@H]2C[C@@H](SCc3ccccc3)[C@H](C(=O)O)CN2S(=O)(=O)c2ccc(C)cc2)cc1	93.1%
CC(=O)C1=CC[C@@H](c2ccc(C)cc2)N(S(=O)(=O)c2ccc(Cl)cc2)C1	112%
O=C(O)C1=CC[C@@H](c2ccc(Cl)cc2)N(S(=O)(=O)c2ccc(Cl)cc2)[C@H]1c1ccc(Br)cc1	32.6%
Cc1ccc(S(=O)(=O)N2[C@@H](c3cccc(Br)c3)C(C(=O)O)=CC[C@H]2c2cccs2)cc1	55%
COc1ccc([C@@H]2CC=C(C(=O)O)[C@H](c3ccc(C)cc3)N2S(=O)(=O)c2ccccc2)cc1	88.2%
Cc1ccc(S(=O)(=O)N2[C@@H](c3cccc(F)c3)C(C(=O)O)=CC[C@H]2c2ccc(F)cc2)cc1	70.1%
CS(=O)(=O)N1[C@@H](c2cccc(F)c2)C(C(=O)O)=CC[C@H]1c1ccccc1	86.6%
CS(=O)(=O)N1[C@@H](c2ccc(Cl)cc2)C(C(=O)O)=CC[C@H]1c1ccccc1	82.1%
CCCCS[C@@H]1C[C@@H](c2ccc(OCC)cc2)N(S(=O)(=O)c2ccc(C)cc2)C[C@H]1C(=O)O	66%
Cc1ccc([C@@H]2C[C@@H](Sc3ccccc3)[C@H](C(=O)O)CN2S(C)(=O)=O)cc1	99.6%
CS(=O)(=O)N1[C@@H](c2cccc(Br)c2)C(C(=O)O)=CC[C@H]1c1ccc(Cl)cc1	50.4%
CCCCCCS[C@@H]1C[C@@H](c2ccc(OCC)cc2)N(S(=O)(=O)c2ccc(C)cc2)C[C@H]1C(=O)O	67.6%
Cc1ccc([C@@H]2CC=C(C(=O)O)[C@H](c3cccc(Cl)c3)N2S(C)(=O)=O)cc1	64.4%

— ChEMBL document CHEMBL4421722, “Inhibitors of protein prenyltransferases” (2013)
